Patent US9856274B2, “Substituted pyrazolo[1,5-a]pyridines as PDE-10 inhibitors” (Sunovion Pharmaceuticals Inc., priority 2011, dated 2018)

Target: recombinant human PDE-10 enzyme (Homo sapiens (Human), UniProt Q9Y233)
Test: Human PDE-10 inhibition enzyme assay (IMAP PDE Fluorescence Polarization)
Format: biochemical
Details: recombinant human PDE-10 expressed in baculoviral system; Fluorescein-labeled cAMP/cGMP substrate; 40-minute incubation at 37° C.
Protocol: In one embodiment, the compounds provided herein were assayed for their ability to inhibit human PDE-10A. In one embodiment, the activities of the compounds were determined using the Molecular Devices IMAP PDE Fluorescence Polarization assay using recombinant human PDE-10 enzyme expressed in a baculoviral system. Briefly, 10 μL of a compound (0.2 nM-20 μM) was added to either a 96-well half area black plate or a 384-well black plate along with 10 μL of Fluorescein-labeled cAMP/cGMP substrate as per manufacturer's instructions and 10 μL of PDE enzyme (activity 0.1 U). Following a 40-minute incubation at 37° C., 60 μL of IMAP binding reagent was added. The plate was then read on a Perkin Elmer Victor (480-535 nm). The data was analyzed using Prism Software (GraphPad Inc, San Diego, Calif.).

Chain of recombinant human PDE-10 enzyme (Q9Y233 whole entry): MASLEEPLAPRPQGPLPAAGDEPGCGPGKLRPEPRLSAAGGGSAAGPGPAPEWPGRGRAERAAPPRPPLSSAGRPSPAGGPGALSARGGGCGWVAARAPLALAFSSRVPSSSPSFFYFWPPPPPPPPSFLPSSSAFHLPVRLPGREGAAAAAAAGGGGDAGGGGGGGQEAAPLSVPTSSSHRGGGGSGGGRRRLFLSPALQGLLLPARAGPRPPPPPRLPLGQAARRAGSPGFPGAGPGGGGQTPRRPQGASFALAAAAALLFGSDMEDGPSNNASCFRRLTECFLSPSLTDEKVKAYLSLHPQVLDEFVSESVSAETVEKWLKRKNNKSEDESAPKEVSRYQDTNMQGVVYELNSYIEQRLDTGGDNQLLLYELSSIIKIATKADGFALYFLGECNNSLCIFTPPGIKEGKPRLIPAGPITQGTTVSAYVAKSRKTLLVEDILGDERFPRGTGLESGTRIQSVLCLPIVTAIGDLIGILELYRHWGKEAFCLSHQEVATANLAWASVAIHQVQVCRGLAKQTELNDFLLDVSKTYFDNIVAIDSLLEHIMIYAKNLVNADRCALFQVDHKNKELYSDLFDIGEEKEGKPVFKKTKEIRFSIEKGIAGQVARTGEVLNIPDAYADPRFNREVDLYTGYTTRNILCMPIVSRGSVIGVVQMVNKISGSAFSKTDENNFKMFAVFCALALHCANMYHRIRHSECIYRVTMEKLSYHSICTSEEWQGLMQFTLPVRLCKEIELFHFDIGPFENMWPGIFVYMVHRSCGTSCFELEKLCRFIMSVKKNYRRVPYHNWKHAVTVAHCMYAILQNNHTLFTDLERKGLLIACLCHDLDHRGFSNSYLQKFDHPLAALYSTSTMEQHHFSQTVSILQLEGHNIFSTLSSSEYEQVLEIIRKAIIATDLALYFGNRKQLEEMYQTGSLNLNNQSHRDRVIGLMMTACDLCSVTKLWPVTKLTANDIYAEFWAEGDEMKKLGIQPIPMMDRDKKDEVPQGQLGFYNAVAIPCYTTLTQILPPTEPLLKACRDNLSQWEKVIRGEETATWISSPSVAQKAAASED

SMILES | IC50
Cc1ncc(C)n2nc(CCc3cn4ccccc4n3)nc12 [Compound 1] | 10 to 100 nM
Cc1ncc(C)n2nc(CCc3nc4ccccn4n3)nc12 [Compound 3] | > 500 nM
Cn1c(CCc2nc3ccccc3o2)nc2c3cccnc3ccc21 [Compound 4] | 100 to 500 nM
Cn1c(CCc2nc3ccccn3n2)nc2c3cccnc3ccc21 [Compound 5] | 10 to 100 nM
Cc1ncc(C)n2nc(CCc3nc4c5cccnc5ccc4n3C)nc12 [Compound 6] | ≤ 10 nM
Cc1ncc(C)n2nc(CCc3nc4c5cccnc5sc4n3C)nc12 [Compound 7] | ≤ 10 nM
Cc1cccc2nc(CCc3nc4c5cccnc5ccc4n3C)nn12 [Compound 8] | ≤ 10 nM
Cc1cccn2nc(CCc3nc4c5cccnc5ccc4n3C)nc12 [Compound 9] | ≤ 10 nM
Cc1cnc(C)n2nc(CCc3nc4c5cccnc5ccc4n3C)nc12 [Compound 10] | 10 to 100 nM
Cc1ccc(C)n2nc(CCc3nc4c5cccnc5ccc4n3C)nc12 [Compound 11] | ≤ 10 nM
Cc1ncc(C)n2nc(CCc3nc4ccc5ncccc5n4n3)nc12 [Compound 12] | 100 to 500 nM
Cc1ncc(C)n2nc(CCc3nc4c5cccnc5ccn4n3)nc12 [Compound 13] | 10 to 100 nM
Cc1cccc2nc(CCc3nc4c5cccnc5ccn4n3)nn12 [Compound 14] | 10 to 100 nM
c1cnc2ccn3nc(CCc4nc5ccccn5n4)nc3c2c1 [Compound 15] | > 500 nM
Cc1ccc(C)n2nc(CCc3nc4c5cccnc5ccn4n3)nc12 [Compound 16] | ≤ 10 nM
Cc1cc(C)n2nc(CCc3nc4c5cccnc5ccn4n3)nc2n1 [Compound 17] | 10 to 100 nM
Cc1ncc(C)n2nc(CCc3nc4c5ncccc5ccc4n3C)nc12 [Compound 18] | ≤ 10 nM
Cc1ncc(C)n2nc(CCc3nc4c5nccnc5ccc4n3C)nc12 [Compound 19] | ≤ 10 nM
Cn1c(CCc2nc3ccccn3n2)nc2c3ncccc3ccc21 [Compound 20] | 100 to 500 nM
Cn1c(CCc2nc3ccccn3n2)nc2c3nccnc3ccc21 [Compound 21] | 100 to 500 nM
c1cnc2c(c1)ccn1nc(CCc3nc4ccccn4n3)nc21 [Compound 22] | > 500 nM

SMILES | IC50
Cc1cccc2nc(CCc3nc4n(n3)CCc3ncccc3-4)nn12 [Compound 23, 2-(2-(5-Methyl-[1,2,4]triazolo[1,5-a]pyridin-2-yl)ethyl)-5,6-dihydro-[1,2,4]triazolo[5,1-f][1,6]naphthyridine] | > 500 nM
Cc1ncc(C)n2nc(CCc3nc4c5cccnc5ccc4n3C)cc12 [Compound 24] | ≤ 10 nM
Cc1ncc(C)n2cc(CCc3nc4c5cccnc5ccc4n3C)nc12 [Compound 25] | 10 to 100 nM
Cn1c(CCc2cn3ccccc3n2)nc2c3cccnc3ccc21 [Compound 26] | > 500 nM
Cc1ncc(C)n2cc(CCc3nc4c5cccnc5ccn4n3)nc12 [Compound 27] | 10 to 100 nM
Cc1ncc(C)n2nc(CCc3nc4c(ccc5ncccc54)[nH]3)cc12 [Compound 28] | 10 to 100 nM
Cc1ncc(C)n2nc(C(C)Cc3nc4c5cccnc5ccc4n3C)nc12 (centres unmarked) [Compound 29] | ≤ 10 nM
Cc1ncc(C)n2nc(CC(C)c3nc4c5cccnc5ccc4n3C)nc12 (centres unmarked) [Compound 30] | 10 to 100 nM
Cn1c(CCc2cn3ccncc3n2)nc2c3cccnc3ccc21 [Compound 31] | > 500 nM
Cc1ccc(C)n2cc(CCc3nc4c5cccnc5ccc4n3C)nc12 [Compound 32] | 10 to 100 nM
Cc1ccc(Cl)c2cc(CCc3nc4c5cccnc5ccc4n3C)nn12 [Compound 33] | ≤ 10 nM
Cc1ccc(C)n2cc(CCc3nc4c5cccnc5ccn4n3)nc12 [Compound 34] | 100 to 500 nM
Cc1ncc(C)n2nc(CCc3nc4c5cccnc5ccn4n3)cc12 [Compound 35] | 10 to 100 nM
Cc1ncc(C)n2nc(CCc3nc4c(ccc5ncccc54)[nH]3)nc12 [Compound 36] | ≤ 10 nM
Cc1ncc(C)n2nc(CCc3nc4c5c(ccc4n3C)CCCC5)nc12 [Compound 37] | ≤ 10 nM
Cc1ncc(C)n2nc(CCc3nc4c5c(ccn4c3C)CCCC5)nc12 [Compound 38] | ≤ 10 nM
Cc1ncc(C)n2nc(CCc3nc4c5cccnc5ccn4c3C)nc12 [Compound 39] | ≤ 10 nM
Cc1c(CCc2nc3c(F)ccc(C)n3n2)nc2c3cccnc3ccn12 [Compound 40] | ≤ 10 nM
Cc1ncc(C)n2nc(CCc3nc4c5c(ccn4c3C)NCCO5)nc12 [Compound 41] | 10 to 100 nM
Cc1ncc(C)n2nc(CCc3nc4c5c(ccc4n3C)OCCO5)nc12 [Compound 42] | ≤ 10 nM
